Source: patent US20260013501A1, “HERBICIDAL DERIVATIVES” (SYNGENTA CROP PROTECTION AG, priority 2022, published 2026)

Experiments:
Assay type in all cases: in vivo
Details in all cases: evaluated after 13 days
[1] = test system: Echinochloa crus-galli (ECHCG); assay: Pre-emergence Test (Table B1), ECHCG
Zea mays (ZEAMX) [2] = assay: Pre-emergence Test (Table B1), ZEAMX
[3] = test system: Ipomoea hederacea (IPOHE); assay: Pre-emergence Test (Table B1), IPOHE
[4] = test system: Amaranthus retoflexus (AMARE); assay: Post-emergence Test (Table B2), AMARE; parameters: key: five-point scale: 5=81-100%, 4=61-80%, 3=41-60%, 2=21-40%, 1=0-20% damage
Description: (§1) Seeds of a variety of test species are sown in standard soil in pots (Ipomoea hederacea (IPOHE), Zea mays (ZEAMX), Echinochloa crus-galli (ECHCG), Amaranthus palmeri (AMAPA), (Amaranthus retoflexus (AMARE), and (Setaria faberi (SETFA)). After 8 days cultivation under controlled conditions in a glasshouse (at 24° C./16° C., day/night; 14 hours light; 65% humidity), the plants are sprayed with an aqueous spray solution derived from the formulation of the technical active ingredient in acetone/water (50:50) solution containing 0.5% Tween 20 (polyoxyethelyene sorbitan monolaurate, CAS RN 9005-64-5). Rate of application is shown in g/ha in the tables below. The test plants are then grown in a glasshouse under controlled conditions in a glasshouse (at 24° C./16° C., day/night; 14 hours light; 65% humidity) and watered twice daily. After 13 days the test is evaluated for the percentage damage caused to the plant. The biological activities are shown in the following table on a five-point scale (5=81-100%; 4=61-80%; 3=41-60%; 2=21-40%; 1=0-20%; -=not tested).

[5] = test system: Echinochloa crus-galli (ECHCG); assay: Post-emergence Test (Table B2), ECHCG; parameters: key: 5-point damage scale: 5=81-100%, 4=61-80%, 3=41-60%, 2=21-40%, 1=0-20%
Description: as §1

Setaria faberi (SETFA) = assay: Post-emergence Test (Table B2), SETFA; parameters: key: five-point scale: 5=81-100%, 4=61-80%, 3=41-60%, 2=21-40%, 1=0-20% damage
Description: as §1

Zea mays (ZEAMX) [6] = assay: Post-emergence Test (Table B2), ZEAMX; parameters: key: 5-point damage scale: 5=81-100%, 4=61-80%, 3=41-60%, 2=21-40%, 1=0-20%
Method in brief: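 Evaluation 13 days post-spray gives percent plant damage, reported in five 20% bands (1=0-20% up to 5=81-100%). Test species, sown in soil and kept at 24/16 °C day/night with 14 h light, are treated with compound in 50:50 acetone/water plus 0.5% Tween 20, applied per g/ha.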

[7] = test system: Amaranthus palmeri (AMAPA); assay: Post-emergence Test (Table B2), AMAPA; parameters: key: five-point scale: 5=81-100%, 4=61-80%, 3=41-60%, 2=21-40%, 1=0-20% damage
Description: as §1

[8] = test system: Amaranthus palmeri (AMAPA); assay: Pre-emergence Test (Table B1), AMAPA
[9] = test system: Amaranthus retoflexus (AMARE); assay: Pre-emergence Test (Table B1), AMARE

CCn1c(Cc2ccccc2)cc(=O)c(C(=O)O)c1-c1ccc(Cl)c(Cl)c1 [Compound 3, 6-benzyl-2-(3,4-dichlorophenyl)-1-ethyl-4-oxo-pyridine-3-carboxylic acid]
0: Pre-emergence Test, percentage damage caused to the plant (five-point scale), ECHCG ([1]; Rate 1000 g/Ha) | Pre-emergence Test, percentage damage caused to the plant (five-point scale), ZEAMX (Zea mays (ZEAMX) [2]; Rate 1000 g/Ha) | Pre-emergence Test, percentage damage caused to the plant (five-point scale), IPOHE ([3]; Rate 1000 g/Ha) | percentage damage caused to the plant, AMARE ([4]; rate 1000 g/Ha)

CCn1c(Cc2cc(Cl)cc(Cl)c2)cc(=O)c(C(=O)O)c1-c1ccc(Cl)c(Cl)c1 [Compound 10, 2-(3,4-dichlorophenyl)-6-[(3,5-dichlorophenyl)methyl]-1-ethyl-4-oxo-pyridine-3-carboxylic acid]
0: percentage damage caused to the plant, ECHCG ([5]; rate 1000 g/Ha) | percentage damage caused to the plant, SETFA (Setaria faberi (SETFA); rate 1000 g/Ha) | percentage damage caused to the plant, ZEAMX (Zea mays (ZEAMX) [6]; rate 1000 g/Ha)

CCn1c(Cc2ccccc2C)cc(=O)c(C(=O)O)c1-c1ccc(Cl)c(Cl)c1 [Compound 15, 2-(3,4-dichlorophenyl)-1-ethyl-6-(o-tolylmethyl)-4-oxo-pyridine-3-carboxylic acid]
0: percentage damage caused to the plant, ECHCG ([5]; rate 1000 g/Ha) | percentage damage caused to the plant, SETFA (Setaria faberi (SETFA); rate 1000 g/Ha)

CCn1c(Cc2cncc(Cl)c2)cc(=O)c(C(=O)O)c1-c1ccc(Cl)c(Cl)c1 [Compound 17, 6-[(5-chloro-3-pyridyl)methyl]-2-(3,4-dichlorophenyl]-1-ethyl-4-oxo-pyridine-3-carboxylic acid]
0: Pre-emergence Test, percentage damage caused to the plant (five-point scale), ECHCG ([1]; Rate 250 g/Ha) | Pre-emergence Test, percentage damage caused to the plant (five-point scale), ZEAMX (Zea mays (ZEAMX) [2]; Rate 250 g/Ha) | percentage damage caused to the plant, ECHCG ([5]; rate 250 g/Ha) | percentage damage caused to the plant, AMAPA ([7]; rate 250 g/Ha) | percentage damage caused to the plant, ZEAMX (Zea mays (ZEAMX) [6]; rate 250 g/Ha) | Pre-emergence Test, percentage damage caused to the plant (five-point scale), AMAPA ([8]; Rate 250 g/Ha) | Pre-emergence Test, percentage damage caused to the plant (five-point scale), AMARE ([9]; Rate 250 g/Ha) | Pre-emergence Test, percentage damage caused to the plant (five-point scale), IPOHE ([3]; Rate 250 g/Ha) | percentage damage caused to the plant, AMARE ([4]; rate 250 g/Ha)

CCn1c(Cc2ccnc(C(F)(F)F)c2)cc(=O)c(C(=O)O)c1-c1ccc(Cl)c(Cl)c1 [Compound 21, 2-(3,4-dichlorophenyl)-1-ethyl-4-oxo-6-[[2-(trifluoromethyl)-4-pyridyl]methyl]pyridine-3-carboxylic acid]
0: percentage damage caused to the plant, AMAPA ([7]; rate 250 g/Ha) | percentage damage caused to the plant, AMARE ([4]; rate 250 g/Ha)

CCn1c(Cc2ccc(C)cc2F)cc(=O)c(C(=O)O)c1-c1ccc(Cl)c(Cl)c1 [Compound 67, 2-(3,4-dichlorophenyl)-1-3ethyl-6-[(2-fluoro-4-methyl-phenyl)methyl]-4-oxo-pyridine-3-3-carboxylic acid]
0: Pre-emergence Test, percentage damage caused to the plant (five-point scale), ZEAMX (Zea mays (ZEAMX) [2]; Rate 250 g/Ha) | percentage damage caused to the plant, ECHCG ([5]; rate 250 g/Ha) | percentage damage caused to the plant, SETFA (Setaria faberi (SETFA); rate 250 g/Ha) | percentage damage caused to the plant, AMAPA ([7]; rate 250 g/Ha) | Pre-emergence Test, percentage damage caused to the plant (five-point scale), AMAPA ([8]; Rate 250 g/Ha) | Pre-emergence Test, percentage damage caused to the plant (five-point scale), AMARE ([9]; Rate 250 g/Ha) | Pre-emergence Test, percentage damage caused to the plant (five-point scale), IPOHE ([3]; Rate 250 g/Ha)

CCn1c(Cc2ccc(F)cc2Cl)cc(=O)c(C(=O)O)c1-c1ccc(Cl)c(Cl)c1 [Compound 68, 6-[(2-chloro-4-fluoro-phenyl)methyl]-2-(3,4-dichlorophenyl)-1-ethyl-4-oxo-3-pyridine-3-carboxylic acid]
0: Pre-emergence Test, percentage damage caused to the plant (five-point scale), ZEAMX (Zea mays (ZEAMX) [2]; Rate 1000 g/Ha) | percentage damage caused to the plant, ECHCG ([5]; rate 1000 g/Ha) | percentage damage caused to the plant, AMAPA ([7]; rate 1000 g/Ha) | Pre-emergence Test, percentage damage caused to the plant (five-point scale), IPOHE ([3]; Rate 1000 g/Ha) | percentage damage caused to the plant, AMARE ([4]; rate 1000 g/Ha)

CCn1c(Cc2ccc(OC)cc2Cl)cc(=O)c(C(=O)O)c1-c1ccc(Cl)c(Cl)c1 [Compound 69, 6-[(2-chloro-4-methoxy-phenyl)methyl]-2-(3,4-dichlorophenyl)-1-ethyl-4-oxo-pyridine-3-carboxylic acid]
0: Pre-emergence Test, percentage damage caused to the plant (five-point scale), ZEAMX (Zea mays (ZEAMX) [2]; Rate 1000 g/Ha) | percentage damage caused to the plant, ECHCG ([5]; rate 1000 g/Ha) | percentage damage caused to the plant, AMAPA ([7]; rate 1000 g/Ha) | Pre-emergence Test, percentage damage caused to the plant (five-point scale), AMAPA ([8]; Rate 1000 g/Ha) | Pre-emergence Test, percentage damage caused to the plant (five-point scale), AMARE ([9]; Rate 1000 g/Ha) | Pre-emergence Test, percentage damage caused to the plant (five-point scale), IPOHE ([3]; Rate 1000 g/Ha) | percentage damage caused to the plant, AMARE ([4]; rate 1000 g/Ha)

CCn1c(Cc2ccc(F)c(Cl)c2)cc(=O)c(C(=O)O)c1-c1ccc(Cl)c(Cl)c1 [Compound 75, 6-[(3-chloro-4-fluoro-phenyl)methyl]-2-(3,4-dichlorophenyl)-1-ethyl-4-oxo-pyridine-3-carboxylic acid]
0: Pre-emergence Test, percentage damage caused to the plant (five-point scale), ZEAMX (Zea mays (ZEAMX) [2]; Rate 1000 g/Ha) | percentage damage caused to the plant, AMAPA ([7]; rate 1000 g/Ha) | percentage damage caused to the plant, ZEAMX (Zea mays (ZEAMX) [6]; rate 1000 g/Ha) | percentage damage caused to the plant, AMARE ([4]; rate 1000 g/Ha)

CCn1c(Cc2ccc(OC)c(Cl)c2)cc(=O)c(C(=O)O)c1-c1ccc(Cl)c(Cl)c1 [Compound 86, 6-[(3-chloro-4-methoxy-phenyl)methyl]-2-(3,4-dichlorophenyl)-1-ethyl-4-oxo-pyridine-3-carboxylic acid]
0: Pre-emergence Test, percentage damage caused to the plant (five-point scale), ZEAMX (Zea mays (ZEAMX) [2]; Rate 250 g/Ha) | percentage damage caused to the plant, AMAPA ([7]; rate 250 g/Ha) | Pre-emergence Test, percentage damage caused to the plant (five-point scale), AMAPA ([8]; Rate 250 g/Ha) | Pre-emergence Test, percentage damage caused to the plant (five-point scale), IPOHE ([3]; Rate 250 g/Ha) | percentage damage caused to the plant, AMARE ([4]; rate 250 g/Ha)

CCn1c(Cc2ccc(C)c(C#N)n2)cc(=O)c(C(=O)O)c1-c1ccc(Cl)c(Cl)c1 [Compound 113, 6-[(6-cyano-5-methyl-2-pyridyl)methyl]-2-(3,4-dichlorophenyl)-1-ethyl-4-oxo-pyridine-3-carboxylic acid]
0: Pre-emergence Test, percentage damage caused to the plant (five-point scale), ZEAMX (Zea mays (ZEAMX) [2]; Rate 250 g/Ha) | percentage damage caused to the plant, AMAPA ([7]; rate 250 g/Ha) | Pre-emergence Test, percentage damage caused to the plant (five-point scale), AMAPA ([8]; Rate 250 g/Ha) | Pre-emergence Test, percentage damage caused to the plant (five-point scale), AMARE ([9]; Rate 250 g/Ha) | percentage damage caused to the plant, AMARE ([4]; rate 250 g/Ha)

CCn1c(Cc2cc(C)n(C)n2)cc(=O)c(C(=O)O)c1-c1ccc(Cl)c(Cl)c1 [Compound 120, 2-(3,4-dichlorophenyl)-6-[(1,5-dimethylpyrazol-3-yl)methyl]-1-ethyl-4-oxo-pyridine-3-carboxylic acid]
0: Pre-emergence Test, percentage damage caused to the plant (five-point scale), ECHCG ([1]; Rate 250 g/Ha) | Pre-emergence Test, percentage damage caused to the plant (five-point scale), ZEAMX (Zea mays (ZEAMX) [2]; Rate 250 g/Ha) | percentage damage caused to the plant, AMAPA ([7]; rate 250 g/Ha) | Pre-emergence Test, percentage damage caused to the plant (five-point scale), AMAPA ([8]; Rate 250 g/Ha) | Pre-emergence Test, percentage damage caused to the plant (five-point scale), AMARE ([9]; Rate 250 g/Ha) | Pre-emergence Test, percentage damage caused to the plant (five-point scale), IPOHE ([3]; Rate 250 g/Ha) | percentage damage caused to the plant, AMARE ([4]; rate 250 g/Ha)

CCn1c(Cc2nc(OC)cc(OC)n2)cc(=O)c(C(=O)O)c1-c1ccc(Cl)c(Cl)c1 [Compound 126, 2-(3,4-dichlorophenyl)-6-[(4,6-dimethoxypyrimidin-2-yl)methyl]-1-ethyl-4-oxo-pyridine-3-carboxylic acid]
0: Pre-emergence Test, percentage damage caused to the plant (five-point scale), ZEAMX (Zea mays (ZEAMX) [2]; Rate 250 g/Ha) | percentage damage caused to the plant, AMAPA ([7]; rate 250 g/Ha) | percentage damage caused to the plant, AMARE ([4]; rate 250 g/Ha)

CCOc1cccc(Cc2cc(=O)c(C(=O)O)c(-c3ccc(Cl)c(Cl)c3)n2CC)n1 [Compound 127, 2-(3,4-dichlorophenyl)-6-[(6-ethoxy-2-pyridyl)methyl]-1-ethyl-4-oxo-pyridine-3-carboxylicacid]
0: Pre-emergence Test, percentage damage caused to the plant (five-point scale), ECHCG ([1]; Rate 250 g/Ha) | Pre-emergence Test, percentage damage caused to the plant (five-point scale), ZEAMX (Zea mays (ZEAMX) [2]; Rate 250 g/Ha) | percentage damage caused to the plant, ECHCG ([5]; rate 250 g/Ha) | percentage damage caused to the plant, SETFA (Setaria faberi (SETFA); rate 250 g/Ha) | percentage damage caused to the plant, ZEAMX (Zea mays (ZEAMX) [6]; rate 250 g/Ha) | Pre-emergence Test, percentage damage caused to the plant (five-point scale), AMAPA ([8]; Rate 250 g/Ha) | Pre-emergence Test, percentage damage caused to the plant (five-point scale), AMARE ([9]; Rate 250 g/Ha) | Pre-emergence Test, percentage damage caused to the plant (five-point scale), IPOHE ([3]; Rate 250 g/Ha)

CCn1c(Cc2cc(C)on2)cc(=O)c(C(=O)O)c1-c1ccc(Cl)c(Cl)c1 [Compound 135, 2-(3,4-dichlorophenyl)-1-ethyl-6-[(5-methylisoxazol-3-yl)methyl]-4-oxo-pyridine-3-carboxylic acid]
0: Pre-emergence Test, percentage damage caused to the plant (five-point scale), ECHCG ([1]; Rate 250 g/Ha) | Pre-emergence Test, percentage damage caused to the plant (five-point scale), ZEAMX (Zea mays (ZEAMX) [2]; Rate 250 g/Ha) | percentage damage caused to the plant, ECHCG ([5]; rate 250 g/Ha) | percentage damage caused to the plant, SETFA (Setaria faberi (SETFA); rate 250 g/Ha) | Pre-emergence Test, percentage damage caused to the plant (five-point scale), AMAPA ([8]; Rate 250 g/Ha) | Pre-emergence Test, percentage damage caused to the plant (five-point scale), IPOHE ([3]; Rate 250 g/Ha)
